Measurements as given in ChEMBL document CHEMBL1143044, “The isolation of secondary metabolites and in vitro potent anti-cancer activity of clerodermic acid from Enicosanthum membranifolium” (Bioorg Med Chem, 2007).
Calls of active or inactive are those of the source. The calls are words filed in the database; no cut-off is given here.

Legend:
Assay type in all cases: functional, cell-based
HL-60 [1] = test: Induction of apoptosis in human HL60 cells at 200 uM in presence of 100 uM caspase inhibitor ZVADFMK by Trypan blue exclusion test
HL-60 [2] = test: Growth inhibition of human HL60 cells by Trypan blue exclusion test
HL-60 [3] = test: Induction of apoptosis in human HL60 cells assessed as nucleosomal DNA fragmentation after 24 hrs

IC50 (HL-60 [2]): 68 µM
Structure (SMILES): C[C@@H]1CC[C@@]2(C)C(C(=O)O)=CCCC2[C@@]1(C)CCC1=CC(=O)OC1 (stereo partly drawn) [CLERODERMIC ACID]
Activity (HL-60 [1]): Active
Activity (HL-60 [3]): Active
